In ChEMBL document CHEMBL4052785, “Discovery of (R)-5-(benzo[d][1,3]dioxol-5-yl)-7-((1-(vinylsulfonyl)pyrrolidin-2-yl)methyl)-7H-pyrrolo[2,3-d]pyrimidin-4-amine (B6) as a potent Bmx inhibitor for the treatment of NSCLC” (Bioorg Med Chem Lett, 2017):

Legend:
[1] = molecular target: Dual specificity mitogen-activated protein kinase kinase 7 (Homo sapiens, UniProt O14733); experiment: Inhibition of recombinant human N-terminal GST-tagged MKK7beta (2 to end residues) expressed in Escherichia coli preincubated for 5 mins followed by substrate addition after 30 to 60 mins in presence of ATP by fluorescence assay
Mus musculus [2] = experiment: Toxicity in nude mouse xenografted with human NCI-H1975 cells assessed as adverse effects at 25 mg/kg administered qd via oral gavage for 18 days measured on day 14; assay type: organism-based; conditions: in vivo, 432 h
Homo sapiens [3] = organism: Homo sapiens; experiment: Selectivity ratio of IC50 for recombinant human N-terminal GST-tagged RET (658 to end residues) to IC50 for human full length N-terminal His6-tagged BMX
Mus musculus [4] = experiment: Toxicity in nude mouse xenografted with human NCI-H1975 cells assessed as body weight loss at 25 mg/kg administered qd via oral gavage measured every 2 days up to 18 days; assay type: organism-based; conditions: in vivo
Homo sapiens [5] = organism: Homo sapiens; experiment: Selectivity ratio of IC50 for C-terminal His6-tagged human Her2 (676 to end residues) to IC50 for human full length N-terminal His6-tagged BMX
Homo sapiens [6] = organism: Homo sapiens; experiment: Selectivity ratio of IC50 for recombinant human full length N-terminal His6-tagged FYN to IC50 for human full length N-terminal His6-tagged BMX
[7] = molecular target: Tyrosine-protein kinase JAK2 (Homo sapiens, UniProt O60674); experiment: Inhibition of recombinant human C-terminal His6-tagged JAK2 (808 to end residues) expressed in baculovirus Sf21 insect cells preincubated for 5 mins followed by substrate addition after 30 to 60 mins in presence of ATP by fluorescence assay
Homo sapiens [8] = organism: Homo sapiens; experiment: Selectivity ratio of IC50 for recombinant human full length N-terminal His6-tagged LCK to IC50 for human full length N-terminal His6-tagged BMX
Homo sapiens [9] = organism: Homo sapiens; experiment: Selectivity ratio of IC50 for recombinant human N-terminal His6-tagged FGR (2 to end residues) to IC50 for human full length N-terminal His6-tagged BMX
[10] = molecular target: Ribosomal protein S6 kinase alpha-1 (Homo sapiens, UniProt Q15418); experiment: Inhibition of RSK1 (unknown origin) preincubated for 5 mins followed by substrate addition after 30 to 60 mins in presence of ATP by fluorescence assay
Homo sapiens [11] = organism: Homo sapiens; experiment: Selectivity ratio of IC50 for recombinant human full length N-terminal GST-tagged CSK to IC50 for human full length N-terminal His6-tagged BMX
Mus musculus [12] = experiment: Toxicity in nude mouse xenografted with human NCI-H1975 cells assessed as body weight loss at 25 mg/kg administered qd via oral gavage for 18 days measured on day 14; assay type: organism-based; conditions: in vivo, 432 h
[13] = molecular target: Tyrosine-protein kinase Fgr (Homo sapiens, UniProt P09769); experiment: Inhibition of recombinant human N-terminal His6-tagged FGR (2 to end residues) expressed in baculovirus Sf21 insect cells preincubated for 5 mins followed by substrate addition after 30 to 60 mins in presence of ATP by fluorescence assay
Homo sapiens [14] = organism: Homo sapiens; experiment: Selectivity ratio of IC50 for recombinant human full length N-terminal His6-tagged YES to IC50 for human full length N-terminal His6-tagged BMX
Homo sapiens [15] = organism: Homo sapiens; experiment: Selectivity ratio of IC50 for recombinant human N-terminal His6-tagged RIPK2 (1 to 299 residues) to IC50 for human full length N-terminal His6-tagged BMX
[16] = molecular target: Protein-tyrosine kinase 6 (Homo sapiens, UniProt Q13882); experiment: Inhibition of recombinant human full length N-terminal His6-tagged BRK expressed in baculovirus Sf21 insect cells preincubated for 5 mins followed by substrate addition after 30 to 60 mins in presence of ATP by fluorescence assay
[17] = molecular target: Tyrosine-protein kinase Yes (Homo sapiens, UniProt P07947); experiment: Inhibition of recombinant human full length N-terminal His6-tagged YES expressed in baculovirus Sf21 insect cells preincubated for 5 mins followed by biotinyl-beta Abeta Abeta AYQAEENTYDEYEN substrate addition after 30 to 60 mins in presence of ATP by fluorescence assay
[18] = molecular target: Tyrosine-protein kinase Tec (Homo sapiens, UniProt P42680); experiment: Inhibition of recombinant human N-terminal His6-tagged TEC (174 to end residues) expressed in baculovirus Sf21 insect cells preincubated for 5 mins followed by Ulight-TK peptide substrate addition after 30 to 60 mins in presence of ATP by fluorescence assay
[19] = molecular target: Proto-oncogene tyrosine-protein kinase Src (Homo sapiens, UniProt P12931); experiment: Inhibition of recombinant human full length N-terminal His6-tagged SRC expressed in Sf21 insect cells preincubated for 5 mins followed by substrate addition after 30 to 60 mins in presence of ATP by fluorescence assay
[20] = molecular target: Receptor-type tyrosine-protein kinase FLT3 (Homo sapiens, UniProt P36888); experiment: Inhibition of recombinant human N-terminal GST-tagged FLT3 (564 to end residues) expressed in expressed in Sf21 cells preincubated for 5 mins followed by substrate addition after 30 to 60 mins in presence of ATP by fluorescence assay
NCI-H1975 = experiment: Antiproliferative activity against human NCI-H1975 cells harboring EGFR L858R/T790M mutant after 72 hrs by MTT assay; assay type: functional, cell-based; conditions: NCI-H1975, 72 h
[21] = molecular target: Tyrosine-protein kinase Fer (Homo sapiens, UniProt P16591); experiment: Inhibition of recombinant human N-terminal His6-tagged FER (541 to end residues) expressed in baculovirus Sf21 insect cells preincubated for 5 mins followed by substrate addition after 30 to 60 mins in presence of ATP by fluorescence assay
A549 = experiment: Antiproliferative activity against human A549 cells harboring wild type EGFR after 72 hrs by MTT assay; assay type: functional, cell-based; conditions: A549, 72 h
Homo sapiens [22] = organism: Homo sapiens; experiment: Selectivity ratio of IC50 for recombinant human N-terminal GST-tagged FLT3 (564 to end residues) to IC50 for human full length N-terminal His6-tagged BMX
[23] = molecular target: Tyrosine-protein kinase CSK (Homo sapiens, UniProt P41240); experiment: Inhibition of recombinant human full length N-terminal GST-tagged CSK expressed in Escherichia coli BL21 (DE3) cells preincubated for 5 mins followed by biotinyl-beta Abeta Abeta AEEEPQYEEIPIYLELLP substrate addition after 30 to 60 mins in presence of ATP by fluorescence assay
[24] = molecular target: Tyrosine-protein kinase JAK3 (Homo sapiens, UniProt P52333); experiment: Inhibition of recombinant human N-terminal His6-tagged JAK3 (781 to end residues) expressed in baculovirus Sf21 insect cells preincubated for 5 mins followed by substrate addition after 30 to 60 mins in presence of ATP by fluorescence assay
Homo sapiens [25] = organism: Homo sapiens; experiment: Selectivity ratio of IC50 for recombinant human full length N-terminal His6-tagged LYN to IC50 for human full length N-terminal His6-tagged BMX
Homo sapiens [26] = organism: Homo sapiens; experiment: Selectivity ratio of IC50 for recombinant human full length N-terminal His6-tagged BTK to IC50 for human full length N-terminal His6-tagged BMX
Homo sapiens [27] = organism: Homo sapiens; experiment: Selectivity ratio of IC50 for recombinant human N-terminal His6-tagged HCK (230 to 497 residues) to IC50 for human full length N-terminal His6-tagged BMX

Sequence of Proto-oncogene tyrosine-protein kinase Src (P12931 2-536 limits assumed): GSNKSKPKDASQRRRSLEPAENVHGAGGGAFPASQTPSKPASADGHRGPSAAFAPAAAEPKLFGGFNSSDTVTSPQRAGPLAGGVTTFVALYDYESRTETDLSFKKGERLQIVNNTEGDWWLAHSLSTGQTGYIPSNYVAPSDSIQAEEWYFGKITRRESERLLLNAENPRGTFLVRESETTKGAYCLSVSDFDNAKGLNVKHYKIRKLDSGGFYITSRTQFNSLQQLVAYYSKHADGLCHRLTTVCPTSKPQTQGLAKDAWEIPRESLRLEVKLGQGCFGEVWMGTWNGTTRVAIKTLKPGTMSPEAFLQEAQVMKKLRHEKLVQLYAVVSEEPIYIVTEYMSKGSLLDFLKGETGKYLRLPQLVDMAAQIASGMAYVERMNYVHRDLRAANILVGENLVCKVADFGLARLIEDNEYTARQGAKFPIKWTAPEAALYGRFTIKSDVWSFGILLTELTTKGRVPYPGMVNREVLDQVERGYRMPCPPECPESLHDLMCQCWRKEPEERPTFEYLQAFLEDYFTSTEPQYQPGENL
Sequence of Tyrosine-protein kinase JAK2 (O60674 whole entry): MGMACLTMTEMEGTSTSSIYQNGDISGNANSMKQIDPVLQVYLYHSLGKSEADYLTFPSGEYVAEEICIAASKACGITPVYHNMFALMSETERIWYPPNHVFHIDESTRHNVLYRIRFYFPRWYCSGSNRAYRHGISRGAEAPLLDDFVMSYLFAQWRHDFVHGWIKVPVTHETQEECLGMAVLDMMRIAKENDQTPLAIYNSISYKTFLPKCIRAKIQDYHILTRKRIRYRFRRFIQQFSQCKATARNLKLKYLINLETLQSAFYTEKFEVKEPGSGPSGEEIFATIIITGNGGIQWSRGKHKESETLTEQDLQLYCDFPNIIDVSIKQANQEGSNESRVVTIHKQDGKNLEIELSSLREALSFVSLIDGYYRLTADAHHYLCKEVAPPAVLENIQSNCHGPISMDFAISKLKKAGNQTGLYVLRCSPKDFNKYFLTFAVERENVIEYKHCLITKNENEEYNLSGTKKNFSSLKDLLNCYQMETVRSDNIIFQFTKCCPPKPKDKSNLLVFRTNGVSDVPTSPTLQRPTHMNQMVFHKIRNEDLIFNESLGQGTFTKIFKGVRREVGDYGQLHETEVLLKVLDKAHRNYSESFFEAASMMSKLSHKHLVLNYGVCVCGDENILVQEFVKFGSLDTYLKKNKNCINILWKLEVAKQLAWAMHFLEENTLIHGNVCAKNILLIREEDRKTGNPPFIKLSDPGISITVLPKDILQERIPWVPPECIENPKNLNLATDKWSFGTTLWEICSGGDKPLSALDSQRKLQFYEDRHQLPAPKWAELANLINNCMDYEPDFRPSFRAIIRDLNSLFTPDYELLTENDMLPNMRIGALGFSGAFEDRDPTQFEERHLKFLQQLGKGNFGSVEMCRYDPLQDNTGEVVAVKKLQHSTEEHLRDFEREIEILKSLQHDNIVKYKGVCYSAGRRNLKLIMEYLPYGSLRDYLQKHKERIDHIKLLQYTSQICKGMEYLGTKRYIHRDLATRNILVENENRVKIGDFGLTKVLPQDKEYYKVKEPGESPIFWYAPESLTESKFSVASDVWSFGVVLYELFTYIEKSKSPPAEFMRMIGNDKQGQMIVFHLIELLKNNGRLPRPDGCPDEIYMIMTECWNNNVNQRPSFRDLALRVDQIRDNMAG
Sequence of Tyrosine-protein kinase Tec (P42680 whole entry): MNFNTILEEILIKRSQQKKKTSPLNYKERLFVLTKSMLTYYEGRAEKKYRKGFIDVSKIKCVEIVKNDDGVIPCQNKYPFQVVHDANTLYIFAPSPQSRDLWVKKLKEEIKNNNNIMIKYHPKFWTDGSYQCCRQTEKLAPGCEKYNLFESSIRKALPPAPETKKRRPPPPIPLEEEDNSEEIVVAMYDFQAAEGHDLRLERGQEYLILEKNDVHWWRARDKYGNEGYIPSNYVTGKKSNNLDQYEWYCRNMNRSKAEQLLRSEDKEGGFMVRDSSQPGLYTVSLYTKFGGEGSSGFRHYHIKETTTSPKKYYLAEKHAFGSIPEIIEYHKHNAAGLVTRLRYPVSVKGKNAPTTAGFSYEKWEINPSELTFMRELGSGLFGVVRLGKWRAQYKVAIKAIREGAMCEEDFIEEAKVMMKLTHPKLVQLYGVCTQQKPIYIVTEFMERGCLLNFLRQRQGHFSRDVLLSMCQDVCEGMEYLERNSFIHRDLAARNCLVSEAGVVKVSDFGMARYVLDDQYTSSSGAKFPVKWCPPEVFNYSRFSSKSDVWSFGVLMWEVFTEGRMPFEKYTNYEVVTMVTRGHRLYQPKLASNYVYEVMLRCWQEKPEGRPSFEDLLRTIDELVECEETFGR
Sequence of Dual specificity mitogen-activated protein kinase kinase 7 (O14733 whole entry): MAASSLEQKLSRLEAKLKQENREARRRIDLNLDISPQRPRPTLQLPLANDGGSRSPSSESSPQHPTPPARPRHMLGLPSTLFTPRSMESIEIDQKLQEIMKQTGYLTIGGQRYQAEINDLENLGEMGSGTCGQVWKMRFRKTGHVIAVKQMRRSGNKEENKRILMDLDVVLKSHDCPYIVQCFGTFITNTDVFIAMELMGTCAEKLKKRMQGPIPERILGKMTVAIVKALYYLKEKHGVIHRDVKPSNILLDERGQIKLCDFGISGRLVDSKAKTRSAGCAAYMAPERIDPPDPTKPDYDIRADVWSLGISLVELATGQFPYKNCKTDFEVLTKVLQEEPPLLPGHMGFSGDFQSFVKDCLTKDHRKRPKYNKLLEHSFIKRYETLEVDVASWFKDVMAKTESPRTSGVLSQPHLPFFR
Sequence of Protein-tyrosine kinase 6 (Q13882 whole entry): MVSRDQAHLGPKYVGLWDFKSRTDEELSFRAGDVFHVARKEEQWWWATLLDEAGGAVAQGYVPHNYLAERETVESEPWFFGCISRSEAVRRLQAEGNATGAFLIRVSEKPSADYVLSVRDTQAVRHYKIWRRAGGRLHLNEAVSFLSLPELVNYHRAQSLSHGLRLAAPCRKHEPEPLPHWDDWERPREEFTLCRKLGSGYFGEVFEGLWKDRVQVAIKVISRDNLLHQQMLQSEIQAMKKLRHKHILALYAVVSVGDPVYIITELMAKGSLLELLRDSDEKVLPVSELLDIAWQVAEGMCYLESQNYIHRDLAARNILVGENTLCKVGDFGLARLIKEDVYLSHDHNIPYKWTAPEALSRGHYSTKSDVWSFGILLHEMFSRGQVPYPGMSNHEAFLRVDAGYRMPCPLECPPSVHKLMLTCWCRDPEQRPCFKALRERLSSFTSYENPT
Sequence of Tyrosine-protein kinase Yes (P07947 whole entry): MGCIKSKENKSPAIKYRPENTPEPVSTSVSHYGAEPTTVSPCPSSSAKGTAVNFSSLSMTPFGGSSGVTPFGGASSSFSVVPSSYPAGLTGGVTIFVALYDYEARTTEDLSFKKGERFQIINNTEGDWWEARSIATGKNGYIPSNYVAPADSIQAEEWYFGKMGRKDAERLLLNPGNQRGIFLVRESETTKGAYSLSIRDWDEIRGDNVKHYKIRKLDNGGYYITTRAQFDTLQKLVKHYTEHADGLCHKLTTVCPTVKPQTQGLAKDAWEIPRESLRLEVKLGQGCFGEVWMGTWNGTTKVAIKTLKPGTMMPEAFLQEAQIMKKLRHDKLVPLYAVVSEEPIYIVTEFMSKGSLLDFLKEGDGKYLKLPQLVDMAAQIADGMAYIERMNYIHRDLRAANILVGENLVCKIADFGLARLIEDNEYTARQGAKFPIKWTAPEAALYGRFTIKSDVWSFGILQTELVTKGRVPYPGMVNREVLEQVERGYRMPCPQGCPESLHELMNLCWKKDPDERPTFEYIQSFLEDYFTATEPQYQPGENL
Sequence of Tyrosine-protein kinase Fer (P16591 whole entry): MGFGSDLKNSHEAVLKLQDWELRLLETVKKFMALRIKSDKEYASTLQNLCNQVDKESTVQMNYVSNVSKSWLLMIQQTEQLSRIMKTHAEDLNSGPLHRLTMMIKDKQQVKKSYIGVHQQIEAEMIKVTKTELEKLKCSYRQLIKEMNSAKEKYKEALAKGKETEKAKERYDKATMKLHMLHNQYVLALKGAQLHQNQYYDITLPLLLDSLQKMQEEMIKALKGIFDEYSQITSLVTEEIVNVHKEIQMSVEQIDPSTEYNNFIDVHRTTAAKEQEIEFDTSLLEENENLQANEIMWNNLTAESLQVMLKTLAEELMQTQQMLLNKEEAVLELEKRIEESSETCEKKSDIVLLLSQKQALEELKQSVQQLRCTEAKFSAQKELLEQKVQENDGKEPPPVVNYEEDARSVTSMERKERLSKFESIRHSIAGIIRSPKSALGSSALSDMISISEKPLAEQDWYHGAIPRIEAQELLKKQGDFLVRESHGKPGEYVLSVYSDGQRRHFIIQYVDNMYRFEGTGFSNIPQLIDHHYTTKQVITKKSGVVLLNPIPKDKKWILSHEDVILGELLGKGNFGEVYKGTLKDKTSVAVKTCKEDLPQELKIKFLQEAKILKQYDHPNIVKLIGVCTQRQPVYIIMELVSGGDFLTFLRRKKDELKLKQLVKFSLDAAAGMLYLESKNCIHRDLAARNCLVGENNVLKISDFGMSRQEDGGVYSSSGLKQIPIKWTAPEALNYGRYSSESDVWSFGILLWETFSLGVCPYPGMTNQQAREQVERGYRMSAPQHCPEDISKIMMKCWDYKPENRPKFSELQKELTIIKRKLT

IC50 [1]: 189 nM
Ratio IC50 (Homo sapiens [3]): 2.5
Ratio IC50 (Homo sapiens [5]): 37.8
Ratio IC50 (Homo sapiens [6]): 12
IC50 [7]: > 10000 nM
Ratio IC50 (Homo sapiens [8]): 5.5
Ratio IC50 (Homo sapiens [9]): 3.7
IC50 [10]: > 10000 nM
Ratio IC50 (Homo sapiens [11]): 79.2
IC50 [13]: 133 nM
Ratio IC50 (Homo sapiens [14]): 1.6
Ratio IC50 (Homo sapiens [15]): 11.3
IC50 [16]: 220 nM
IC50 [17]: 57.3 nM
IC50 [18]: 115 nM
IC50 [19]: 197 nM
IC50 [20]: 3280 nM
IC50 (NCI-H1975): 920 nM
IC50 [21]: 5910 nM
IC50 (A549): 4150 nM
Ratio IC50 (Homo sapiens [22]): 91.7
IC50 [23]: 2830 nM
IC50 [24]: 8160 nM
Ratio IC50 (Homo sapiens [25]): 8.3
Ratio IC50 (Homo sapiens [26]): 2.5
Ratio IC50 (Homo sapiens [27]): 5.6
Structure (SMILES): C=CS(=O)(=O)N1CCC[C@@H]1Cn1cc(-c2ccc3c(c2)OCO3)c2c(N)ncnc21
Activity (Mus musculus [2]): Non-Toxic
Activity (Mus musculus [4]): Toxic
Activity (Mus musculus [12]): Non-Toxic
